Earlier results, collected in patent publication US20120231996A1, “Phalloidin derivatives and methods for their synthesis” (priority 2006, published 2012).
Numbered stars: 1 amine (or outer) side, 2 acyl side, 3 side chain; on linkers, the order of the positions; unused ones are H or OH. Bridge positions count the residues as written; N and C are the ends. Square brackets hold non-standard residues; d marks the D form. Peptide text beside a SMILES is read from it. Trp(2-yl) = O=C([C@H](Cc1c([*:3])[nH]c2ccccc12)N[*:1])[*:2]; Leu(4R-OH,5-OH) = C[C@](O)(CO)C[C@H](N)C(=O)O; cisHyp = O=C(O)[C@@H]1C[C@H](O)CN1

What was measured:
[1] = test system: filamentous actin (F-actin)
actin = settings: in solution

C[C@@H]1NC(=O)[C@H](C[C@@](C)(O)CO)NC(=O)[C@@H]2Cc3c([nH]c4ccccc34)SC[C@H](NC(=O)[C@@H]([C@H](C)O)NC1=O)C(=O)N1C[C@@H](O)C[C@H]1C(=O)N[C@@H](C)C(=O)N2 [Phalloidin] (cyclo(A[dT]C[cisHyp]A[Trp(2-yl)][Leu(4R-OH,5-OH)]); thioether 3-6)
Affinity of binding to filamentous actin [1]: binds with high affinity | Effect on critical concentration of actin polymerization (actin): lowers the critical concentration of actin polymerization
